Measured values reported in PubChem BioAssay (NCI).
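48-hour exposure; five concentrations; linearly interpolated endpoints. GI50 = concentration required for 50% inhibition of growth. At the TGI there is no net growth.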

Legend:
Experiment in all cases: NCI-60 cell line screen, 48 h
[1] = test system: PC-3 prostate
[2] = test system: SNB-75 CNS
[3] = test system: CCRF-CEM leukemia
[4] = test system: SNB-19 CNS
[5] = test system: K-562 leukemia
[6] = test system: HL-60(TB) leukemia
[7] = test system: UACC-257 melanoma
[8] = test system: SK-MEL-28 melanoma
[9] = test system: U251 CNS
[10] = test system: HCC-2998 colon
[11] = test system: HOP-92 NSCLC
[12] = test system: OVCAR-5 ovarian
[13] = test system: SF-295 CNS
[14] = test system: 786-0 renal
[15] = test system: MCF7 breast
[16] = test system: NCI-H522 lung
[17] = test system: IGROV1 ovarian
[18] = test system: OVCAR-3 ovarian
[19] = test system: A498 renal
[20] = test system: OVCAR-8 ovarian
[21] = test system: RPMI-8226 leukemia
[22] = test system: MALME-3M melanoma
[23] = test system: KM12 colon
[24] = test system: A549 NSCLC
[25] = test system: UO-31 renal
[26] = test system: ACHN renal
[27] = test system: SK-OV-3 ovarian

COC(=O)c1cc(O)c2c(c1C(=O)OC)C[C@H]1[C@@H]3CC=C4C[C@@H](O)CC[C@]4(C)[C@H]3CC[C@]21C
GI50 [1]: 2.51 µM | TGI [1]: 13.3 µM | GI50 [2]: 9.75 µM | TGI [2]: 55.9 µM | GI50 [3]: 1.71 µM | TGI [3]: 4.99 µM | GI50 [4]: 4.1 µM | TGI [4]: 23.8 µM | GI50 [5]: 2.41 µM | TGI [5]: 7.77 µM | GI50 [6]: 3.03 µM | TGI [6]: 6.93 µM | GI50 [7]: 2.54 µM | TGI [7]: 7.5 µM | GI50 [8]: 2.71 µM | TGI [8]: 8.59 µM | GI50 [9]: 1.93 µM | TGI [9]: 7.82 µM | GI50 [10]: 3.74 µM | TGI [10]: 16 µM | GI50 [11]: 2.59 µM | TGI [11]: 8.2 µM | GI50 [12]: 4.82 µM | TGI [12]: 23.9 µM | GI50 [13]: 1.72 µM | TGI [13]: 4.4 µM | GI50 [14]: 2.42 µM | TGI [14]: 6.7 µM | GI50 [15]: 3.15 µM | TGI [15]: 12.8 µM | GI50 [16]: 2.17 µM | TGI [16]: 5.44 µM | GI50 [17]: 3.89 µM | TGI [17]: 15.9 µM | GI50 [18]: 2.19 µM | TGI [18]: 4.94 µM | GI50 [19]: 3.7 µM | TGI [19]: 20.1 µM | GI50 [20]: 3.33 µM | TGI [20]: 16.9 µM | GI50 [21]: 1.57 µM | TGI [21]: 4.96 µM | GI50 [22]: 2.71 µM | TGI [22]: 8.15 µM | GI50 [23]: 2.91 µM | TGI [23]: 12.2 µM | GI50 [24]: 3.06 µM | TGI [24]: 11.7 µM | GI50 [25]: 2.18 µM | TGI [25]: 4.26 µM | GI50 [26]: 3.64 µM | TGI [26]: 17 µM | GI50 [27]: 4.75 µM | TGI [27]: 27.4 µM
